Source: patent publication US20230270148A1, “BITTER BLOCKERS AND RELATED METHODS OF USE” (Conagen Inc., priority 2020, published 2023)

Tests used:
0.25% caffeine solution = assay: Sensory evaluation: bitterness reduction of a caffeine solution; type: in vivo; conditions: for Comments: taste and mouth feel comments, dosage per sample; for Estimated % bitterness reduction: one trained sensory evaluator, vs control, dosage (ppm) per sample (20 to 50-100 ppm)
Protocol: (§1) The bitter blocker candidates listed in Table 1 were prepared into a 1% sample solution with propylene glycol (i.e., 1 g of bitter blocker per 100 ml of propylene glycol) and heated to ensure complete solubilization. […] A trained sensory evaluator was asked to estimate the perceived bitterness reduction against the control, as well as to provide comments on how the addition of the individual sample solution modulated the taste and mouth feel profile of the resulting caffeine solution.

[1] = test system: peach-flavored energy drink (caffeine, B vitamins); assay: Sensory evaluation: bitterness reduction of a peach-flavored energy drink; type: in vivo; conditions: for Comments: dosage per sample; for Estimated % bitterness reduction: caffeine about 710 mg/l, dosage (ppm) per sample (20 to 50-100 ppm)
Protocol: as §1, with “The bitterness” for “The bitter”, “glycol” for “glycol (i.e., 1 g of bitter blocker per 100 ml of propylene glycol)”, “resulting peach-flavored energy drink.” for “resulting caffeine solution.”

[2] = test system: melted dark chocolate pieces with 100% dark cacao; assay: Sensory evaluation: bitterness reduction of dark chocolate pieces; type: in vivo; conditions: dosage 50 or 100 ppm per sample
Protocol: (§2) The bitterness blocker candidates listed in Table 1 were prepared into a 1% sample solution with propylene glycol and heated to ensure complete solubilization. […] Individually, the respective sample solution was added to melted dark chocolate pieces with 100% dark cacao. A trained sensory evaluator was asked to estimate the perceived bitterness reduction against the control, as well as to provide comments on how the addition of the individual sample solution modulated the taste and mouth feel profile of the resulting melted dark chocolate pieces.

dark roast coffee = assay: Sensory evaluation: bitterness reduction of dark roast coffee; type: in vivo; conditions: dosage 50 or 100 ppm per sample; for Estimated % bitterness reduction: caffeine about 740 mg/l
Protocol: (§3) The bitterness blocker candidates listed in Table 1 were prepared into a 1% sample solution with propylene glycol and heated to ensure complete solubilization. […] A trained sensory evaluator was asked to estimate the perceived bitterness reduction against the control, as well as to provide comments on how the addition of the individual sample solution modulated the taste and mouth feel profile of the resulting dark roast coffee.

[3] = test system: cough syrup DELSYM (dextromethorphan HBr); assay: Sensory evaluation: bitterness reduction of cough syrup DELSYM; type: in vivo; conditions: dosage 50 or 100 ppm per sample; for Estimated % bitterness reduction: 6000 mg/l of dextromethorphan
Protocol: as §2, with “a cough syrup sold under the trade name DELSYM®. The bitter-tasting agent contained in the cough syrup were dextromethorphan HBr USP 30 mg (as measured for each 5 ml teaspoon, i.e., 6000 mg/l of dextromethorphan).” for “melted dark chocolate pieces with 100% dark cacao.”, “cough syrup.” for “melted dark chocolate pieces.”

[4] = test system: cough syrup ROBITUSSIN DM (dextromethorphan HBr and guaifenesin); assay: Sensory evaluation: bitterness reduction of cough syrup ROBITUSSIN DM; type: in vivo; conditions: dosage 50 or 100 ppm per sample; for Estimated % bitterness reduction: 21000 mg/l of bitter tastants
Protocol: as §2, with “a cough syrup sold under the trade name ROBITUSSIN® DM. The bitter-tasting agents contained in the cough syrup were dextromethorphan HBr USP 20 mg and guaifenesin USP 400 mg (as measured for each 20 ml serving, or 21000 mg/l of bitter tastants in total).” for “melted dark chocolate pieces with 100% dark cacao.”, “cough syrup.” for “melted dark chocolate pieces.”

[5] = test system: full spectrum CBD hemp oil nanoemulsion; assay: Sensory evaluation: bitterness reduction of full spectrum CBD hemp oil; type: in vivo; conditions: dosage 50 or 100 ppm per sample
Protocol: as §3, with “solubilization. […] A full spectrum CBD hemp oil was emulsified into a water-soluble nanoemulsion first, to which was added the respective sample solution.” for “solubilization.”, “oil nanoemulsion.” for “dark roast coffee.”

CBD isolate nanoemulsion = assay: Sensory evaluation: bitterness reduction of CBD isolate; type: in vivo; conditions: dosage 50 or 100 ppm per sample
Protocol: as §3, with “solubilization. […] A CBD isolate was emulsified into a water-soluble nanoemulsion first, to which was added the respective sample solution.” for “solubilization.”, “nanoemulsion.” for “dark roast coffee.”

THC nanoemulsion = assay: Sensory evaluation: bitterness reduction of THC; type: in vivo; conditions: dosage 50 or 100 ppm per sample; for Comments: THC nanoemulsion; for Estimated % bitterness reduction: THC nanoemulsion (10 mg THC per serving)
Protocol: The bitterness blocker candidates listed in Table 1 were prepared into a 1% sample solution with propylene glycol and heated to ensure complete solubilization. […] THC was first emulsified into a water-soluble nanoemulsion (10 mg THC per serving), to which was added the respective sample solution. A trained sensory evaluator was asked to estimate the perceived bitterness reduction against the control, as well as to provide comments on how the addition of the individual sample solution modulated the taste and mouth feel profile of the resulting nanoemulsion.

caffeine in water = assay: Two-alternative forced choice (2AFC) difference test; type: in vivo
Protocol: The bitter blocker candidates BB09, BB11, and BB13 were subject to a two-alternative forced choice (2AFC) difference test wherein panelists were presented Control Caffeine solutions and Test solutions containing caffeine and one of three bitterness blocker candidates (BB09, BB 11, or BB13). Panelists were asked to evaluate the two samples and answer the question, “which one is more hitter?”
BB09 and BB11 were tested first. Three ounces of control (caffeine in water), BB09 in caffeine water, and BB11 in caffeine water were presented at room temperature in separate plastic souffle cups labeled with 3-digit codes. Ten sensory trained panelists evaluated each sample in three repetitions with a 10 minute break between repetitions. Panelists then completed the 2AFC. Data was collected on EveQuestion and analyzed on XLSTAT. Testing was conducted at Sensations Research according to FEMA guidelines.
BB13 was tested separately. Two ounces of control (caffeine in water), BB13 in caffeine water were presented at room temperature in separate plastic souffle cups labeled with 3-digit codes. Fifteen participants evaluated each sample in two repetitions with a 10 minute break between repetitions for a total of thirty evaluations as per the FEMA guidelines. Panelists then completed the 2AFC to identify the more bitter sample. Data was collected and analyzed on Compusense.

[6] = test system: bitter-responsive human taste bud tissue-derived cells (hTBEC); assay: ATP secretion detection assay (luminescence); type: cell-based
Protocol: The bitter blocker candidates were further characterized using bitter-responsive human taste bud tissue-derived cells (hTBEC) platforms and bioassays. Bitter-responsive hTBECs were treated with hitter blocker candidates and various bitter agonists to assess the efficacy of each bitter blocker candidate in reducing the bitterness of each of the various bitter agonists.
One industry standard bitter agonist was used as a control (L-Praziquantel), and five bitter blocker controls were used (Senomyx BB68, STX-001, sodium gluconate, eridictyol, and homoeridictyol).
BB09, BB11, and BB13 were first tested at various concentrations in combination with 100 μM Dextromethorphan-HBr.
Next, bitter blocker concentration ranges were narrowed (100 μM-1,000 μM) and compared to a fixed concentration of stimulus. […] BB13 was evaluated further by real time ATP secretion detection in pooled hTBEC 66 cells treated with 300 μM Theobromine.
Each culture was treated with BB09, BB11, BB13, STX001, or Senomyx BB68, as well as either Dextromethorphan-HBr at 1000 μM (FIGS. 18A-18C), Theobromine at 1,000 μM (FIGS. 19A-19C), Rebaudioside A at 1 mM (FIGS. 20A-20C), or Caffeine at 3 mM (FIGS. 21A-21C).

SMILES: COc1ccc(-c2cc(=O)c3c(O)cc(O)cc3o2)cc1 [BB01, Acacetin]
- Comments (0.25% caffeine solution): Some bitterness blocking on sides

SMILES: COc1cc([C@@H]2CC(=O)c3c(O)cc(O)cc3O2)ccc1O [BB02, Homoeriodictyol]
- Comments [1]: Some blocking on sides and tip
- Comments [2]: Some blocking on sides and tip
- Comments (dark roast coffee): Some blocking on sides and tip
- Comments [3]: Some blocking on sides and tip
- Comments [4]: Some blocking on sides and tip
- Comments [5]: Some blocking on sides and tip
- Comments (CBD isolate nanoemulsion): Some blocking on sides and tip
- Comments (THC nanoemulsion): Some blocking on sides and tip

SMILES: O=c1c(O)c(-c2ccc(O)cc2)oc2cc(O)cc(O)c12 [BB03, Kaempferol]
- Comments (0.25% caffeine solution): Some bitterness blocking on sides

SMILES: O=C1c2c(O)cc(O)cc2O[C@H](c2ccc(O)c(O)c2)[C@H]1O [BB04, Dihydroquercetin]
- Comments (0.25% caffeine solution): Some bitterness blocking on sides

SMILES: O=C1c2c(O)cc(O)cc2O[C@H](c2ccc(O)cc2)[C@H]1O [BB06, Dihydrokaempferol]
- Comments (0.25% caffeine solution): Some bitterness blocking on sides

SMILES: O=C1C[C@@H](c2ccc(O)c(O)c2)Oc2cc(O)cc(O)c21 [BB07, Eriodictyol]
- Estimated % bitterness reduction (0.25% caffeine solution): 50%
- Comments (0.25% caffeine solution): Some bitterness blocking on all parts
- Estimated % bitterness reduction [1]: 50%
- Comments [1]: Some bitterness blocking on all
- Comments [2]: Some bitterness blocking on all
- Estimated % bitterness reduction [2]: 50%
- Estimated % bitterness reduction (dark roast coffee): 50%
- Comments (dark roast coffee): Some bitterness blocking on all
- Estimated % bitterness reduction [3]: 30%
- Comments [3]: Some bitterness blocking on all
- Estimated % bitterness reduction [4]: 30%
- Comments [4]: Some bitterness blocking on all
- Comments [5]: Some bitterness blocking on all
- Estimated % bitterness reduction [5]: 30%
- Comments (CBD isolate nanoemulsion): Some bitterness blocking on all
- Estimated % bitterness reduction (CBD isolate nanoemulsion): 30%
- Estimated % bitterness reduction (THC nanoemulsion): 30%
- Comments (THC nanoemulsion): Some bitterness blocking on all

SMILES: COc1cc([C@@H]2CC(=O)c3c(O)cc(O[C@@H]4O[C@H](CO)[C@@H](O)[C@H](O)[C@H]4O)cc3O2)ccc1O [BB09, Homoeriodictyol 7-O-glucoside]
- Comments (0.25% caffeine solution): Good upfront bitterness reduction
- Comments [1]: Good upfront bitterness
- Comments [2]: Good bitterness reduction but
- Comments (dark roast coffee): Nice upfront bitterness reduction
- Comments [3]: Covered up a good percentage of
- Comments [5]: Nice upfront bitterness reduction
- Comments (CBD isolate nanoemulsion): Nice upfront bitterness reduction
- Comments (THC nanoemulsion): Nice upfront bitterness reduction
- Significant? (caffeine in water; 2AFC, 90% confidence level, which sample is more bitter): Yes,
- # Selected Variant (which is more bitter?) (caffeine in water; of 30 responses (10 panelists, 3 evaluations), control caffeine in water vs variant in caffeine water): 10
- real time Rebaudioside A-induced ATP secretion ([6]; 1 mM Rebaudioside A, blocker 1,000 μM, pooled hTBEC 56 cultures (FIG. 17)): attenuated
- inhibition of the bitter agonists (ATP secretion) ([6]; hTBEC 66, hTBEC 56, hTBEC Donor H, Dextromethorphan-HBr at 1000 μM, Theobromine 1,000 μM, Rebaudioside A 1 mM or Caffeine 3 mM (FIGS. 18-21)): trends of inhibition in most cases

SMILES: O=C1C[C@@H](c2ccc(O[C@@H]3O[C@H](CO)[C@@H](O)[C@H](O)[C@H]3O)c(O)c2)Oc2cc(O)cc(O)c21 [BB12, Eriodictyol 4′-O-glucoside]
- Estimated % bitterness reduction (0.25% caffeine solution): 30%
- Comments (0.25% caffeine solution): Some bitterness blocking on front
- Estimated % bitterness reduction [1]: 30%
- Estimated % bitterness reduction [2]: 30%
- Estimated % bitterness reduction (dark roast coffee): 30%
- Estimated % bitterness reduction [3]: 30%
- Estimated % bitterness reduction [4]: 30%
- Estimated % bitterness reduction [5]: 30%
- Estimated % bitterness reduction (CBD isolate nanoemulsion): 30%
- Estimated % bitterness reduction (THC nanoemulsion): 30%
